A value given as a limit tells only on which side of the number the result lay.

The target of experiment [1] is T1, AhR (Homo sapiens, UniProt P35869).
T1 sequence (P35869 11-848): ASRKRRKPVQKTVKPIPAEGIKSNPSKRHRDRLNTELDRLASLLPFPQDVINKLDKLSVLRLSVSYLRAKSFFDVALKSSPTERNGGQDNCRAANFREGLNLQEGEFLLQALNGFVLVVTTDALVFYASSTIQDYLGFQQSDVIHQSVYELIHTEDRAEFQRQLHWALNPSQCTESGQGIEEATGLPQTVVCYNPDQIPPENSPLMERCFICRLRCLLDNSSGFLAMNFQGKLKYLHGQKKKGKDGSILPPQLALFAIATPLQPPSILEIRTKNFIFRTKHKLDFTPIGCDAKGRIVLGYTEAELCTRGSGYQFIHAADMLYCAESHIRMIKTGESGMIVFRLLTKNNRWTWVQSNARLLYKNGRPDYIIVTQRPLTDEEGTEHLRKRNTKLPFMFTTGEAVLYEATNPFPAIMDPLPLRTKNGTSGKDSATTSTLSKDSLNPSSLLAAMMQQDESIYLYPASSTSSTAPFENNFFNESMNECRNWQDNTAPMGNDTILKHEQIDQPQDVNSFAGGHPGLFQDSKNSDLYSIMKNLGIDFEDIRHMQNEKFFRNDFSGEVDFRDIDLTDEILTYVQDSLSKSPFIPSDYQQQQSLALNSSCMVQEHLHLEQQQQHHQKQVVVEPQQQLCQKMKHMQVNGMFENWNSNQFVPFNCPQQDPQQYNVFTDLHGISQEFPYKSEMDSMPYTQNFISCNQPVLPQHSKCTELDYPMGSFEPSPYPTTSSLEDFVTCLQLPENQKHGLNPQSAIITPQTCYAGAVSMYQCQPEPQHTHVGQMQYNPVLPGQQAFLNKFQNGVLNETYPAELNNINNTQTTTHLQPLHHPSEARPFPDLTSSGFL
Nature of the experiment: AhR antagonism in human PBMCs - inhibition of IL-22 release. Details: endogenous in cells. The conditions noted are these: human PBMCs activated with CD3/CD28 agonist mixture, 72 hrs, IL-22 ELISA; average; read-out: hPBMC Inhibition of CD3/CD28 induced IL-22 release: av. pIC50 (converted). The class given is cell-based. From the text: In Vitro Assay 3: AhR Antagonism in Human Peripheral Blood Mononuclear Cells (PBMCs)-Inhibition of Interleukin-22 (IL-22) Release.
PBMCs were isolated from human peripheral blood using Lymphoprep™ and diluted to 1×10^6 cells per ml in RPMI media containing […] foetal bovine serum, 1% penicillin-streptomycin and 1% non essential amino acids. PBMCs were subsequently activated with 1p1 per 100,000 cells of a CD3/CD28 agonist mixture (human T Cell TransAct™ (Miltenyi Biotec)) and then plated at 100,000 cells per well in a round bottom 96 well tissue culture plate. One hour after stimulation seven concentrations of each test compound or vehicle (final [DMSO] 0.2%) were added. The plates were then placed in an incubator at 37° C., ≥85% humidity, 5% […] for 72 hrs before the media was removed and stored at −20° C. until cytokine analysis. IL-22 was measured using human IL-22 DuoSet ELISA (R&D systems) according to the manufacturer's instructions.

The target in experiment [2] is T1, AhR. Nature of the experiment: AhR antagonism in U937 cells (Promega P450-Glo assay). It counts as cell-based. The note with it: CYP1A1 activity readout (Luciferin-CEE), head names VAF347, average, read-out: U937 Antagonist pIC50-VAF347: av. pIC50 (converted). Set-up: endogenous in cells; host or cells: U937 cells. Here is the method:
In Vitro Assay 1: AhR Antagonism in U937 Cells (Promega P450-Glo™ Assay)
AhR antagonism was assessed in LJ937 cells (myeloid lineage cell line derived from a human histiocytic lymphoma). Ligand binds the AhR in the cytoplasm, and the AhR-ligand complex translocates to the nucleus and forms a heterodimer with AhR nuclear translocator (Arnt). This complex binds the xenobiotic response element (XRE) in the 5′ upstream region of the CYP1A1 promoter, enhancing CYP1A1 expression. CYP1A1 activity is subsequently determined by assessing the conversion of Luciferin-CEE to luciferin, which in turn reacts with luciferase to produce light. The amount of light produced is directly proportional to cytochrome P450 activity. U937 cells in Ultraculture serum free media (Lonza) were plated at 100,000 cells per well in a round bottom 96 well tissue culture plate. […] The plates were then placed in an incubator at 37° C., ≥85% humidity, 5% CO2 for 24 hrs. After aspiration of the supernatant the CYP1A1 substrate Luciferin-CEE ([Final] 83 μM) was added and incubated for 3 hrs before the reaction was stopped by adding luciferin detection reagent and luminescence was read after 20 minutes.

Turning to `Fc1cncc(-c2nc3c(c(NCCc4c[nH]c5ccccc45)n2)OCCN3)c1` [Example 1, 2-(5-fluoro-3-pyridyl)-N-[2-(1H-indol-3-yl)ethyl]-7,8-dihydro-6H-pyrimido[5,4-b][1,4]oxazin-4-amine], the IC50 on AhR [1] was 1.91 nM; on AhR [2] it was 0.724 nM.
With `Fc1ccc(-c2nc3c(c(NCCc4c[nH]c5ccccc45)n2)OCCN3)cc1` [Example 2, 2-(4-fluorophenyl)-N-[2-(1H-indol-3-yl)ethyl]-7,8-dihydro-6H-pyrimido[5,4-b][1,4]oxazin-4-amine], the IC50 at AhR [1] is 56.2 nM; on AhR [2] it was 25.1 nM.
For `Fc1cc(F)cc(-c2nc3c(c(NCCc4c[nH]c5ccccc45)n2)OCCN3)c1` [Example 3, 2-(3,5-difluorophenyl)-N-[2-(1H-indol-3-yl)ethyl]-7,8-dihydro-6H-pyrimido[5,4-b][1,4]oxazin-4-amine], the IC50 on AhR [1] is 3.98 nM; on AhR [2], 3.55 nM.
Take `Fc1cncc(-c2nc3c(c(N[C@@H]4CCc5[nH]c6ccccc6c5C4)n2)OCCN3)c1` [Example 4, 2-(5-fluoro-3-pyridyl)-N-[(3R)-2,3,4,9-tetrahydro-1H-carbazol-3-yl]-7,8-dihydro-6H-pyrimido[5,4-b][1,4]oxazin-4-amine]: the IC50 at AhR [1] was 83.2 nM; on AhR [2] it was 16.2 nM.
Consider `CC1COc2c(NCCc3c[nH]c4ccccc34)nc(-c3cncc(F)c3)nc2N1` (stereo not drawn) [Example 5, 2-(5-fluoro-3-pyridyl)-N-[2-(1H-indol-3-yl)ethyl]-7-methyl-7,8-dihydro-6H-pyrimido[5,4-b][1,4]oxazin-4-amine], for which the IC50 was 0.955 nM at AhR [1] and 1.86 nM at AhR [2].
As for `CC(C)N1CCOc2c(NCCc3c[nH]c4ccccc34)nc(-c3cncc(F)c3)nc21` [Example 6, 2-(5-fluoro-3-pyridyl)-N-[2-(1H-indol-3-yl)ethyl]-8-isopropyl-6,7-dihydropyrimido[5,4-b][1,4]oxazin-4-amine], the IC50 is 1.35 nM on AhR [1] and 7.76 nM at AhR [2].
On to `Cc1ncc(-c2nc3c(c(NCCc4c[nH]c5ccccc45)n2)OCCN3)s1` [Example 7, N-[2-(1H-indol-3-yl)ethyl]-2-(2-methylthiazol-5-yl)-7,8-dihydro-6H-pyrimido[5,4-b][1,4]oxazin-4-amine], for which the IC50 on AhR [1] is 9.55 nM; on AhR [2] it was 9.12 nM.
For the molecule `C[C@H]1COc2c(NCCc3c[nH]c4ccccc34)nc(-c3cncc(F)c3)nc2N1` [Example 8, (7S)-2-(5-fluoro-3-pyridyl)-N-[2-(1H-indol-3-yl)ethyl]-7-methyl-7,8-dihydro-6H-pyrimido[5,4-b][1,4]oxazin-4-amine], the IC50 at AhR [1] is 1.05 nM; on AhR [2], 1.12 nM.
For `C[C@@H]1COc2c(NCCc3c[nH]c4ccccc34)nc(-c3cncc(F)c3)nc2N1` [Example 9, (7R)-2-(5-fluoro-3-pyridyl)-N-[2-(1H-indol-3-yl)ethyl]-7-methyl-7,8-dihydro-6H-pyrimido[5,4-b][1,4]oxazin-4-amine], the IC50 at AhR [1] is 0.661 nM; at AhR [2], 0.513 nM.
Regarding `Cc1ncsc1-c1nc2c(c(NCCc3c[nH]c4ccccc34)n1)OCCN2` [Example 10, N-[2-(1H-indol-3-yl)ethyl]-2-(4-methylthiazol-5-yl)-7,8-dihydro-6H-pyrimido[5,4-b][1,4]oxazin-4-amine], the IC50 at AhR [1] was 8.13 nM; at AhR [2] it was 4.57 nM.
Taken in the same sequence, the figures for `Cc1ncc(-c2nc3c(c(N(CCO)CCc4c[nH]c5ccccc45)n2)OCCN3)s1` [Example 11, 2-[2-(1H-indol-3-yl)ethyl-[2-(2-methylthiazol-5-yl)-7,8-dihydro-6H-pyrimido[5,4-b][1,4]oxazin-4-yl]amino]ethanol] were 525 nM and 91.2 nM.
As to `CCc1nc(C)c(-c2nc3c(c(NCCc4c[nH]c5ccccc45)n2)OCCN3)s1` [Example 12, 2-(2-ethyl-4-methyl-thiazol-5-yl)-N-[2-(1H-indol-3-yl)ethyl]-7,8-dihydro-6H-pyrimido[5,4-b][1,4]oxazin-4-amine], the IC50 on AhR [1] was 141 nM; at AhR [2] it was 89.1 nM.
Take `c1ccc2c3c([nH]c2c1)CC[C@@H](Nc1nc(-c2nccs2)nc2c1OCCN2)C3` [Example 13, N-[(3R)-2,3,4,9-tetrahydro-1H-carbazol-3-yl]-2-thiazol-2-yl-7,8-dihydro-6H-pyrimido[5,4-b][1,4]oxazin-4-amine]: the IC50 was more than 1780 nM at AhR [1] and 229 nM on AhR [2].
With `Cc1ncc(-c2nc3c(c(NC4Cc5cccc6[nH]cc(c56)C4)n2)OCCN3)s1` (stereo not drawn) [Example 14, 2-(2-methylthiazol-5-yl)-N-(1,3,4,5-tetrahydrobenzo[cd]indol-4-yl)-7,8-dihydro-6H-pyrimido[5,4-b][1,4]oxazin-4-amine], the IC50 was 100 nM on AhR [1] and 74.1 nM on AhR [2].
Consider `O=c1[nH]cccc1-c1nc2c(c(NCCc3c[nH]c4ccccc34)n1)OCCN2` [Example 17, 3-[4-[2-(1H-indol-3-yl)ethylamino]-7,8-dihydro-6H-pyrimido[5,4-b][1,4]oxazin-2-yl]-1H-pyridin-2-one], for which the IC50 is 1.66 nM on AhR [1] and 3.8 nM at AhR [2].
With `Cn1cccc(-c2nc3c(c(NCCc4c[nH]c5ccccc45)n2)OCCN3)c1=O` [Example 19, 3-[4-[2-(1H-indol-3-yl)ethylamino]-7,8-dihydro-6H-pyrimido[5,4-b][1,4]oxazin-2-yl]-1-methyl-pyridin-2-one], the results for the IC50 on AhR [1] and on AhR [2] were 24.5 nM and 51.3 nM, respectively.
As for `Cc1ccc(-c2nc3c(c(NCCc4c[nH]c5cc(F)ccc45)n2)OCCN3)cn1` [Example 20, N-[2-(6-fluoro-1H-indol-3-yl)ethyl]-2-(6-methyl-3-pyridyl)-7,8-dihydro-6H-pyrimido[5,4-b][1,4]oxazin-4-amine], the IC50 on AhR [1] is 43.7 nM; at AhR [2], 91.2 nM.
On to `O=c1[nH]cccc1-c1nc2c(c(NCCc3c[nH]c4cc(F)ccc34)n1)OCCN2` [Example 21, 3-[4-[2-(6-fluoro-1H-indol-3-yl)ethylamino]-7,8-dihydro-6H-pyrimido[5,4-b][1,4]oxazin-2-yl]-1H-pyridin-2-one], for which the IC50 on AhR [1] is 1.45 nM; on AhR [2], 2.75 nM.
`FC(F)Oc1ncccc1-c1nc2c(c(NCCc3c[nH]c4ccccc34)n1)OCCN2` [Example 22, 2-[2-(difluoromethoxy)-3-pyridyl]-N-[2-(1H-indol-3-yl)ethyl]-7,8-dihydro-6H-pyrimido[5,4-b][1,4]oxazin-4-amine]: the results for the IC50 at AhR [1] and on AhR [2] were more than 2000 nM and 123 nM, respectively.
In the case of `Cc1ncc(-c2nc3c(c(OCCc4c[nH]c5cc(F)ccc45)n2)OCCN3)s1` [Example 24, 4-[2-(6-fluoro-1H-indol-3-yl)ethoxy]-2-(2-methylthiazol-5-yl)-7,8-dihydro-6H-pyrimido[5,4-b][1,4]oxazine], the IC50 on AhR [1] was 2.88 nM; on AhR [2], 2.63 nM.
`COC[C@@H]1COc2c(NCCc3c[nH]c4ccccc34)nc(-c3ccc[nH]c3=O)nc2N1` [Example 26, (R)-3-(4-((2-(1H-indol-3-yl)ethyl)amino)-7-(methoxymethyl)-7,8-dihydro-6H-pyrimido[5,4-b][1,4]oxazin-2-yl)pyridin-2(1H)-one]: the IC50 on AhR [1] was 0.724 nM; at AhR [2] it was 4.79 nM.
